Values of other authors, collected in article PMC8371712 (ACS chemical biology, 2021).

Legend:
[1] = system: alanine aminotransferase; conditions: margin of safety statement; no reference given
[2] = system: aspartate aminotransferase; conditions: margin of safety statement; no reference given
[3] = system: hERG potassium ion channel; conditions: margin of safety statement; no reference given
[4] = system: various microsomal cytochrome P450 enzymes; conditions: margin of safety statement; no reference given
[5] = system: Cerep SpectrumScreen panel of 176 pharmacological targets
[6] = no reference given
[7] = system: release of dopamine in the corpus striatum; conditions: no reference given

## N[C@H]1C=C(C(=O)O)CC1=C(F)F [OV329, (S)-3-amino-(difluoromethylenyl)cyclopent-1-ene-1-carboxylic acid]
[1]
  activity against alanine aminotransferase: lack of activity
[2]
  activity against aspartate aminotransferase: lack of activity
[3]
  activity against hERG potassium ion channel: lack of activity
[4]
  activity against microsomal cytochrome P450 enzymes: lack of activity
[5]
  activity in Cerep SpectrumScreen panel: lack of activity
[6]
  Ames test: negative
[7]
  release of dopamine in the corpus striatum: blocks the release of dopamine
